According to patent US20190177371A1, “NOVEL MODULATORS OF MELANOCORTIN RECEPTORS” (ARIZONA BOARD OF REGENTS ON BEHALF OF THE UNIVERSITY OF …, priority 2014, published 2019):

Key:
hMC5R [1] = biological target: T1, hMC5R (Homo sapiens, UniProt P33032); experiment: Adenylate cyclase (cAMP) assay in HEK293 cells expressing hMC5R
hMC4R [2] = biological target: T2, hMC4R (Homo sapiens, UniProt P32245); experiment: Adenylate cyclase (cAMP) assay in HEK293 cells expressing hMC4R
hMC3R [3] = biological target: T3, hMC3R (Homo sapiens, UniProt P41968); experiment: Adenylate cyclase (cAMP) assay in HEK293 cells expressing hMC3R
hMC1R [4] = biological target: T4, hMC1R (Homo sapiens, UniProt Q01726); experiment: Adenylate cyclase (cAMP) assay in HEK293 cells expressing hMC1R
hMC4R [5] = biological target: T2, hMC4R; experiment: Competitive binding assay with [125I]-NDP-α-MSH on whole HEK293 cells expressing hMC4R
Experimental: (§1) The pharmacological characterization for the binding efficiencies greater than 70% are defined as competitive binding, binding efficiency less than 70% are non-competitive binding.
(§2) Receptor Binding Assay. Competition binding experiments were carried out using both of cloned cell line and melanoma cells (A375, ATCC). The whole HEK293 cells stably expressing human MC1, MC3, MC4, and MC5 receptors as described before. […] The assay medium was subsequently removed, the cells were washed once with basic medium, and then lysed by the addition of 100 μL of 0.1M NaOH and 100 μL of 1% Triton X-100.

hMC3R [6] = biological target: T3, hMC3R; experiment: Competitive binding assay with [125I]-NDP-α-MSH on whole HEK293 cells expressing hMC3R
Experimental: as §1, §2

hMC1R [7] = biological target: T4, hMC1R; experiment: Competitive binding assay with [125I]-NDP-α-MSH on whole HEK293 cells expressing hMC1R
Experimental: as §1, §2

hMC5R [8] = biological target: T1, hMC5R; experiment: Competitive binding assay with [125I]-NDP-α-MSH on whole HEK293 cells expressing hMC5R
Experimental: as §1, §2

T4 sequence (Q01726 whole entry): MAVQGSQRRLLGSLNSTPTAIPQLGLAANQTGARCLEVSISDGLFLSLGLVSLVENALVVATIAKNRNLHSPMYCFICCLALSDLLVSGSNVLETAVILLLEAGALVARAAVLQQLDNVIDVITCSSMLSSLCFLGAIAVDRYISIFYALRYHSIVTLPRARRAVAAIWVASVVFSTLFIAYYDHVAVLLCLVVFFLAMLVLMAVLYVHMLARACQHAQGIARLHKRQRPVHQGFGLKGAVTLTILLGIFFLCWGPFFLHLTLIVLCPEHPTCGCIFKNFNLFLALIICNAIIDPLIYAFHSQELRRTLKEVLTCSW
T3 sequence (P41968 whole entry): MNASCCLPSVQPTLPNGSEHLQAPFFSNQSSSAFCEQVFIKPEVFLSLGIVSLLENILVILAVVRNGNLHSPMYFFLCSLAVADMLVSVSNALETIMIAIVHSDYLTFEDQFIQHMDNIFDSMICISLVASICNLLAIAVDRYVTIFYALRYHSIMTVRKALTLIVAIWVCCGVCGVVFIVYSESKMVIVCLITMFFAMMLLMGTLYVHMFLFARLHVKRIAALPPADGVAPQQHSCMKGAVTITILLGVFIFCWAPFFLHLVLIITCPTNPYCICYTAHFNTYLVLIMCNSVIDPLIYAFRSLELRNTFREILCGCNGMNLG
T2 sequence (P32245 whole entry): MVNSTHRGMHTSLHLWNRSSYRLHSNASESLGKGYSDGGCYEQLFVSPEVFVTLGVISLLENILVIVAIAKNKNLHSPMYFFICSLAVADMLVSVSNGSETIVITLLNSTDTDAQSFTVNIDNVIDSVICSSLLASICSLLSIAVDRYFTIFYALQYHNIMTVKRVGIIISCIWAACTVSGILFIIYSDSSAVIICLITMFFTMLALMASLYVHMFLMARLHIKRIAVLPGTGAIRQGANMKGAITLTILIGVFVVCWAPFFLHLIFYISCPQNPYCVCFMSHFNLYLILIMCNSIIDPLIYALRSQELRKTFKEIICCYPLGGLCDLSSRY
T1 sequence (P33032 whole entry): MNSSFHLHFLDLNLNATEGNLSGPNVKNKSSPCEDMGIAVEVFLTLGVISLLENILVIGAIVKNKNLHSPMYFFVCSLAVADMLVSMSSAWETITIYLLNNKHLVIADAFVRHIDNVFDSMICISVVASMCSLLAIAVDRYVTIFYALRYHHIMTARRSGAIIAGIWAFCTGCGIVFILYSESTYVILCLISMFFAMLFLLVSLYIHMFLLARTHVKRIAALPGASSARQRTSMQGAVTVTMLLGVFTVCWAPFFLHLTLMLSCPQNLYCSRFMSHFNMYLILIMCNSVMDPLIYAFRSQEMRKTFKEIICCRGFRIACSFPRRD

Substance | functional (cAMP) activity at hMC5R (in words) (hMC5R [1]) | functional (cAMP) activity at hMC4R (in words) (hMC4R [2]) | functional (cAMP) activity at hMC3R (in words) (hMC3R [3]) | functional (cAMP) activity at hMC1R (in words) (hMC1R [4]) | binding affinity at hMC4R (in words) (hMC4R [5]) | binding affinity at hMC3R (in words) (hMC3R [6]) | binding affinity at hMC1R (in words) (hMC1R [7]) | binding affinity at hMC5R (in words) (hMC5R [8])
Ac-Nle-c[Asp-(NMe)His-nal-Arg-(NMe)Trp-Lys]-NH2 [Peptide 13] | moderate selective antagonist | – | – | – | – | – | – | –
Ac-Nle-c[Asp-(NMe)His-(NMe)nal-Arg-Trp-Lys]-NH2 [Peptide 16] | universal antagonist | universal antagonist | universal antagonist | universal antagonist | – | – | – | –
Ac-Nle-c[Asp-(NMe)His-nal-Arg-Trp-(NMe)Lys]-NH2 [Peptide 10] | – | – | – | selective agonist activities | – | – | – | –
Ac-Nle-c[Asp-(NMe)His-(NMe)nal-Arg-Trp-Lys]-NH2 [Peptide 5] | – | – | – | – | drastical loss of binding affinity | – | – | –
Ac-Nle-c[Asp-(NMe)His-nal-(NMe)Arg-(NMe)Trp-Lys]-NH2 [Peptide 24] | selective partial agonist activity | – | – | selective partial agonist activity | – | – | – | –
Ac-Nle-c[Asp-His-nal-Arg-(NMe)Trp-Lys]-NH2 [Peptide 3] | selective agonist | – | – | greater loss of functional activity | – | – | – | –
Ac-Nle-c[Asp-(NMe)His-nal-(NMe)Arg-Trp-(NMe)Lys]-NH2 [Peptide 21] | retains agonist activity | – | – | – | – | – | – | –
Ac-Nle-c[Asp-His-(NMe)nal-(NMe)Arg-Trp-(NMe)Lys]-NH2 [Peptide 20] | almost a universal antagonist activity | almost a universal antagonist activity | very weak activity | almost a universal antagonist activity | – | – | – | –
Ac-Nle-c[Asp-His-(NMe)nal-(NMe)Arg-Trp-Lys]-NH2 [Peptide 14] | – | partial agonistic activities | partial agonistic activities | partial agonistic activities | – | – | – | –
Ac-Nle-c[Asp-His-(NMe)nal-(NMe)Arg-(NMe)Trp-Lys]-NH2 [Peptide 23] | all functional activities are abolished | all functional activities are abolished | all functional activities are abolished | all functional activities are abolished | – | – | – | –
Ac-Nle-c[Asp-His-(NMe)nal-Arg-(NMe)Trp-(NMe)Lys]-NH2 [Peptide 18] | – | partial agonist | – | full agonist activity | – | – | – | –
Ac-Nle-c[Asp-His-nal-(NMe)Arg-Trp-(NMe)Lys]-NH2 [Peptide 8] | – | – | potent antagonist | potent agonist | decreases by 3 orders of magnitude | increases | – | –
Ac-Nle-c[Asp-His-(NMe)nal-Arg-Trp-(NMe)Lys]-NH2 [Peptide 9] | very selective antagonist | – | – | – | drastically lost | drastically lost | drastically lost | –
Ac-Nle-c[Asp-(NMe)His-(NMe)nal-Arg-Trp-(NMe)Lys]-NH2 [Peptide 22] | all functional activities are abolished | all functional activities are abolished | all functional activities are abolished | all functional activities are abolished | – | – | – | –
Ac-Nle-c[Asp-(NMe)His-nal-Arg-(NMe)Trp-(NMe)Lys]-NH2 [Peptide 19] | no activities | no activities | no activities | no activities | good binding | good binding | good binding | good binding
